Here are results for 6 molecules from PubChem BioAssay AID1259407 (Chemical Carcinogenesis Research Information System (CCRIS), 2018).

The data set relates to CCRIS mutagenicity, Ames/micronucleus/aberration tests. Briefly: CCRIS mutagenicity studies. To be noted: Test System: AMES SALMONELLA TYPHIMURIUM
Setting [1] is: Strain/Indicator: TA97, Metabolic Activation: HAMSTER, LIVER, S-9, AROCLOR 1254 (10%), Method: PREINCUBATION
Setting [2] is: Strain/Indicator: TA97, Metabolic Activation: NONE, Method: PREINCUBATION
Setting [3] is: Strain/Indicator: TA97, Metabolic Activation: RAT, LIVER, S-9, AROCLOR 1254 (10%), Method: PREINCUBATION
Setting [4] is: Strain/Indicator: TA98, Metabolic Activation: HAMSTER, LIVER, S-9, AROCLOR 1254 (10%), Method: PREINCUBATION
The mark [5] stands for this setting: Strain/Indicator: TA98, Metabolic Activation: NONE, Method: PREINCUBATION
The mark [6] stands for this setting: Strain/Indicator: TA98, Metabolic Activation: RAT, LIVER, S-9, AROCLOR 1254 (10%), Method: PREINCUBATION
Where [7] appears, read: Strain/Indicator: TA100, Metabolic Activation: HAMSTER, LIVER, S-9, AROCLOR 1254 (10%), Method: PREINCUBATION
[8] abbreviates: Strain/Indicator: TA100, Metabolic Activation: NONE, Method: PREINCUBATION
[9] abbreviates: Strain/Indicator: TA100, Metabolic Activation: NONE, Method: STANDARD PLATE.
Where [10] appears, read: Strain/Indicator: TA100, Metabolic Activation: RAT, LIVER, S-9, AROCLOR 1254 (10%), Method: PREINCUBATION
Where [11] appears, read: Strain/Indicator: TA1535, Metabolic Activation: HAMSTER, LIVER, S-9, AROCLOR 1254 (10%), Method: PREINCUBATION
Where [12] appears, read: Strain/Indicator: TA1535, Metabolic Activation: NONE, Method: PREINCUBATION
The mark [13] stands for this setting: Strain/Indicator: TA1535, Metabolic Activation: RAT, LIVER, S-9, AROCLOR 1254 (10%), Method: PREINCUBATION
The mark [14] stands for this setting: Strain/Indicator: TA98, Metabolic Activation: RAT, LIVER, S-9, PCB, Method: PREINCUBATION

The source made the active and inactive calls. No rule for the calls is given here.

Take `FC(F)(F)c1cccc(Cl)c1`: the mutagenic call under setting [1] was “inactive; negative”; the mutagenic call (Strain/Indicator: TA97, Metabolic Activation: HAMSTER, LIVER, S-9, AROCLOR 1254 (30%), Method: PREINCUBATION) was “inactive; negative”; the mutagenic call under setting [2] was “inactive; negative”; the mutagenic call under setting [3] is “inactive; negative”; the mutagenic call (Strain/Indicator: TA97, Metabolic Activation: RAT, LIVER, S-9, AROCLOR 1254 (30%), Method: PREINCUBATION) was “inactive; negative”; the mutagenic call under setting [4] was “inactive; negative”. Besides, the mutagenic call (Strain/Indicator: TA98, Metabolic Activation: HAMSTER, LIVER, S-9, AROCLOR 1254 (30%), Method: PREINCUBATION) is “inactive; negative”; the mutagenic call under setting [5] is “inactive; negative”; the mutagenic call (Strain/Indicator: TA98, Metabolic Activation: NONE, Method: STANDARD PLATE) is “inactive; negative”; the mutagenic call under setting [6] was “inactive; negative”; the mutagenic call (Strain/Indicator: TA98, Metabolic Activation: RAT, LIVER, S-9, AROCLOR 1254 (30%), Method: PREINCUBATION) was “inactive; negative”; the mutagenic call (Strain/Indicator: TA98, Metabolic Activation: RAT, LIVER, S-9, AROCLOR 1254, Method: STANDARD PLATE) was “inactive; negative”. The mutagenic call by setting is: under setting [7], “inactive; negative”; (Strain/Indicator: TA100, Metabolic Activation: HAMSTER, LIVER, S-9, AROCLOR 1254 (30%), Method: PREINCUBATION) “inactive; negative”; under setting [8], “inactive; negative”; under setting [9], “inactive; negative”; under setting [10], “inactive; negative”; (Strain/Indicator: TA100, Metabolic Activation: RAT, LIVER, S-9, AROCLOR 1254 (30%), Method: PREINCUBATION) “inactive; negative”. The mutagenic call is “inactive; negative” (Strain/Indicator: TA100, Metabolic Activation: RAT, LIVER, S-9, AROCLOR 1254, Method: STANDARD PLATE); “inactive; negative” under setting [11]; “inactive; negative” (Strain/Indicator: TA1535, Metabolic Activation: HAMSTER, LIVER, S-9, AROCLOR 1254 (30%), Method: PREINCUBATION); “inactive; negative” under setting [12]; “inactive; negative” (Strain/Indicator: TA1535, Metabolic Activation: NONE, Method: STANDARD PLATE); “inactive; negative” under setting [13]. The mutagenic call (Strain/Indicator: TA1535, Metabolic Activation: RAT, LIVER, S-9, AROCLOR 1254 (30%), Method: PREINCUBATION) was “inactive; negative”; the mutagenic call (Strain/Indicator: TA1535, Metabolic Activation: RAT, LIVER, S-9, AROCLOR 1254, Method: STANDARD PLATE) was “inactive; negative”; the mutagenic call (Strain/Indicator: TA1537, Metabolic Activation: HAMSTER, LIVER, S-9, AROCLOR 1254 (30%), Method: PREINCUBATION) is “inactive; negative”; the mutagenic call (Strain/Indicator: TA1537, Metabolic Activation: NONE, Method: PREINCUBATION) was “inactive; negative”; the mutagenic call (Strain/Indicator: TA1537, Metabolic Activation: NONE, Method: STANDARD PLATE) is “inactive; negative”; the mutagenic call (Strain/Indicator: TA1537, Metabolic Activation: RAT, LIVER, S-9, AROCLOR 1254 (30%), Method: PREINCUBATION) was “inactive; negative”. Also, the mutagenic call (Strain/Indicator: TA1537, Metabolic Activation: RAT, LIVER, S-9, AROCLOR 1254, Method: STANDARD PLATE) was “inactive; negative”; the mutagenic call (Strain/Indicator: TA1538, Metabolic Activation: NONE, Method: STANDARD PLATE) was “inactive; negative”; the mutagenic call (Strain/Indicator: TA1538, Metabolic Activation: RAT, LIVER, S-9, AROCLOR 1254, Method: STANDARD PLATE) is “inactive; negative”.

For `Cc1ccc(N=[N+]([O-])c2ccc(C)c(N)c2)cc1N`, the mutagenic call was “inactive; negative” under setting [5]; “inactive; negative” (Strain/Indicator: TA98, Metabolic Activation: NONE, Method: SUSPENSION/PLATE); “active; positive” under setting [14]; “active; positive” (Strain/Indicator: TA98, Metabolic Activation: RAT, LIVER, S-9, PHENOBARBITAL AND 5,6-BENZOFLAVONE, Method: SUSPENSION/PLATE); “inactive; negative” (Strain/Indicator: TA100, Metabolic Activation: NONE, Method: SUSPENSION/PLATE); “inactive; negative” (Strain/Indicator: TA100, Metabolic Activation: RAT, LIVER, S-9, PHENOBARBITAL AND 5,6-BENZOFLAVONE, Method: SUSPENSION/PLATE).

Turning to `Nc1ccc(Cc2ccc(N)c(C(=O)O)c2)cc1C(=O)O`, the mutagenic call was “inactive; negative” under setting [5]; “inactive; negative” under setting [14]; “inactive; negative” under setting [8]; “inactive; negative” (Strain/Indicator: TA100, Metabolic Activation: RAT, LIVER, S-9, PCB, Method: PREINCUBATION).

Regarding `CC(=O)Nc1ccccc1N`, the mutagenic call reads like this: under setting [1], “active; positive”; under setting [2], “active; positive”; under setting [3], “active; positive”; under setting [4], “active; positive”; under setting [5], “inactive; negative”; under setting [6], “active; positive”. For the same molecule, the mutagenic call under setting [7] is “active; positive”; the mutagenic call under setting [8] is “inactive; negative”; the mutagenic call under setting [10] was “active; positive”; the mutagenic call under setting [11] is “active; positive”; the mutagenic call under setting [12] is “inactive; negative”; the mutagenic call under setting [13] was “active; positive”.

Take `CCCCOc1cc([N+](=O)[O-])ccc1C(=O)NOC(C)=O`: the mutagenic call by setting is: under setting [9], “active; positive”; (Strain/Indicator: TA100, Metabolic Activation: RAT S9, AROCLOR, Method: STANDARD PLATE) “active; positive”.

Take `COC(=O)c1cc2c([nH]c3ccc([N+](=O)[O-])cc32)c(-c2ccccc2)n1`: the mutagenic call (Strain/Indicator: TA98(NR), Metabolic Activation: NONE, Method: STANDARD PLATE) is “inactive; negative” and the mutagenic call (Strain/Indicator: TA98(NR), Metabolic Activation: RAT, LIVER, S-9, AROCLOR 1254, Method: STANDARD PLATE) was “active; positive”.
